Key:
[1] = system: NEO1A (RNA, aptamer) GGACUGGGCGAGAAGUUUAGUCC; assay: ITC; conditions: for Kd: buffer IC (approximates intracellular salt; composition not shown), buffer IC, 25 °C
[2] = system: TSM (Thymidylate Synthase mRNA region) (RNA, mRNA element) CCCCCCCGCCGCGCCAUGCCUGUGGCCGGUCGG; conditions: column head extracted as (M), μ lost
[3] = system: NEO4A (RNA, aptamer) CUUUGCGAUGUCCUUUAAUGGUCCGCGAGG; assay: ITC; conditions: buffer IC (approximates intracellular salt; composition not shown), 25 °C
[4] = system: TOB3A (RNA, aptamer) GGCACGAGGUUUAGCUACACUCGUGCC; conditions: column head extracted as (M), μ lost
[5] = system: 16S (16S rRNA Decoding region) (RNA, rRNA) GGCGUCACACCUUCGGGUGAAGUCGCC; conditions: column head extracted as (M), μ lost

Row | binding ([1]; 20 μM aptamer in cell, tetracycline concentration not stated) | Kd ([1]; N = 5) [µM] | Dissociation Constants [2] [M] | Kd ([3]; N = 3) [µM] | Dissociation Constants [4] [M] | Kd ([1]; N = 8) [µM] | Dissociation Constants [5] [M] | Kd ([1]; N = 3) [µM] | Kd ([3]; N = 2) [µM] | SMILES
1 | no | – | – | – | – | – | – | – | – | CN(C)[C@@H]1C(=O)C(C(N)=O)=C(O)[C@@]2(O)C(=O)C3=C(O)c4c(O)cccc4[C@@](C)(O)[C@H]3C[C@@H]12
2 | – | 26 ± 9.3 | – | – | – | – | – | – | – | CN[C@@H]1[C@@H](O)[C@@H](O[C@@H]2[C@@H](O)[C@H](O[C@H]3O[C@H]([C@@H](C)O)[C@@H](O)[C@H](O)[C@H]3N)[C@@H](N)C[C@H]2N)OC[C@]1(C)O
3 | – | – | 8.8e-07 ± 1.1e-07 | 0.099 ± 0.036 | 2.2e-06 ± 5e-07 | 0.29 ± 0.054 | 1.93e-06 ± 5.8e-07 | – | – | NC[C@@H]1O[C@H](O[C@H]2[C@@H](O)[C@H](O[C@@H]3[C@@H](O)[C@H](N)C[C@H](N)[C@H]3O[C@H]3O[C@H](CN)[C@@H](O)[C@H](O)[C@H]3N)O[C@@H]2CO)[C@H](N)[C@@H](O)[C@@H]1O
4 | – | 1.4 ± 0.19 | 6.29e-06 ± 3.49e-06 | – | 1.72e-05 ± 1.96e-06 | – | 5.31e-06 ± 1.85e-06 | – | – | NC[C@@H]1O[C@H](O[C@H]2[C@@H](O)[C@H](O[C@@H]3[C@@H](O)[C@H](N)C[C@H](N)[C@H]3O[C@H]3O[C@H](CO)[C@@H](O)[C@H](O)[C@H]3N)O[C@@H]2CO)[C@H](N)[C@@H](O)[C@@H]1O
5 | – | – | 5.75e-06 ± 1.87e-06 | – | 2.4e-07 ± 1e-07 | – | 1.03e-05 ± 3.87e-06 | 4.8 ± 0.95 | – | NC[C@H]1O[C@H](O[C@H]2[C@H](O)[C@@H](O[C@H]3O[C@H](CO)[C@@H](O)[C@H](N)[C@H]3O)[C@H](N)C[C@@H]2N)[C@H](N)C[C@@H]1O
6 | – | 0.75 ± 0.26 | 6.5e-06 ± 3.2e-06 | – | 2.43e-06 ± 1.37e-06 | – | 8.9e-06 ± 3.54e-06 | – | – | NC[C@H]1O[C@H](O[C@H]2[C@H](O)[C@@H](O[C@H]3O[C@H](CO)[C@@H](O)[C@H](N)[C@H]3O)[C@H](N)C[C@@H]2N)[C@H](N)[C@@H](O)[C@@H]1O
7 | – | – | 1.03e-05 ± 6.65e-06 | – | 7.38e-05 ± 3.96e-06 | – | 3.71e-05 ± 4.38e-06 | 43 ± 3.6 | 10.7 ± 4.2 | NC[C@H]1O[C@H](O[C@H]2[C@H](O)[C@@H](O[C@H]3O[C@H](CO)[C@@H](O)[C@H](N)[C@H]3O)[C@H](N)C[C@@H]2N)[C@H](O)[C@@H](O)[C@@H]1O

Reference: article PMC6200808 (2018)
